Data from ChEMBL document CHEMBL5042472, “Design, Synthesis, and Biological Evaluation of a Novel Photocaged PI3K Inhibitor toward Precise Cancer Treatment” (J Med Chem, 2021).
Active and inactive are the calls of the source. The calls are words filed in the database; no cut-off is given here.

How the values were obtained:
[1] = Stability of the compound in dark condition at room temperature after 6 month; assay type: physicochemical; details: 4380 h; time 6 months
[2] = molecular target: Phosphatidylinositol 4,5-bisphosphate 3-kinase catalytic subunit alpha isoform (Homo sapiens, UniProt P42336); experiment: Inhibition of PI3K alpha (unknown origin) using PIP2 as substrate irradiated with 365 nm of UV exposure for 2 mins and incubation in dark at room temperature for 1 hr in presence of ATP measured by ADP-Glo luminescent assay
Chain of Phosphatidylinositol 4,5-bisphosphate 3-kinase catalytic subunit alpha isoform (P42336 whole entry, canonical isoform): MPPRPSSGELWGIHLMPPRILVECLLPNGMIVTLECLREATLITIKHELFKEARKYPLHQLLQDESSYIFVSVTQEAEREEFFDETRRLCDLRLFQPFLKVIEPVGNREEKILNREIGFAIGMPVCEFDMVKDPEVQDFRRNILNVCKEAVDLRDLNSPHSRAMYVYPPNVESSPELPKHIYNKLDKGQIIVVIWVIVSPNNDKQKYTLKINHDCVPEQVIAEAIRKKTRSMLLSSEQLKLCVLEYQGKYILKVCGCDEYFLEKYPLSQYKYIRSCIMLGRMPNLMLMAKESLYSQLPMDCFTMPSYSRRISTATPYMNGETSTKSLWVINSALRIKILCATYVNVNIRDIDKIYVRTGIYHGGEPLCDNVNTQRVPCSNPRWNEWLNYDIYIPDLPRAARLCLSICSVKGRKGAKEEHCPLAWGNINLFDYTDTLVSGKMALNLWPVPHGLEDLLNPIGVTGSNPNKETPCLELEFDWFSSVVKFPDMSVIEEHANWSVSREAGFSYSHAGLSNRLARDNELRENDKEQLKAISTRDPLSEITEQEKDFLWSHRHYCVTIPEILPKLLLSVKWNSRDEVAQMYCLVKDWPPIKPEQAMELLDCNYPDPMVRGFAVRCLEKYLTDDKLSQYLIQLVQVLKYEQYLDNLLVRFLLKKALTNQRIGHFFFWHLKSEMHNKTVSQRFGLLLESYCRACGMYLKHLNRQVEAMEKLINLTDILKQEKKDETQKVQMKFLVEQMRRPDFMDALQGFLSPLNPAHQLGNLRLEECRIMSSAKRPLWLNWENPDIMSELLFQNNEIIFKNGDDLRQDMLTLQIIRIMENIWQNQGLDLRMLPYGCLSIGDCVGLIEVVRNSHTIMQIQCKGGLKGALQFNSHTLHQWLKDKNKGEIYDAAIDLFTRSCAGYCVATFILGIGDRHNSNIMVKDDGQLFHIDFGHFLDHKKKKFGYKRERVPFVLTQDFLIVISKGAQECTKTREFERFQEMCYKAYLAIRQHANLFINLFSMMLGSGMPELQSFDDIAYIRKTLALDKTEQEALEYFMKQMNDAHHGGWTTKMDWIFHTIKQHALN

Homo sapiens = species on record: Homo sapiens; experiment: Anticancer activity against KOES-007 patient derived stomach cancer organoid assessed as inhibition of cell growth irradiated with 365 nm of UV light for 5 mins and incubated for 120 hrs; assay type: functional, tissue-based
HCT-116 [3] = experiment: Inhibition of colony formation in human HCT-116 cells irradiated with 365 nm of UV light for 5 min at 100 nM incubated for 24 hrs by crystal violet staining based assay; assay type: functional, cell-based
BGC-823 [4] = experiment: Antiproliferative activity against human BGC-823 cells assessed as reduction in cell viability incubated in dark for 96 hrs by MTT assay; assay type: functional, cell-based; details: BGC-823, 96 h
HGC-27 [5] = experiment: Inhibition of PI3K/AKT signalling pathway in human HGC-27 cells assessed as downregulation of AKT phosphorylation at Ser473 residue at 100 nM incubated for 24 hrs under dark condition by Western blot; assay type: cell-based
BGC-823 [6] = experiment: Antiproliferative activity against human BGC-823 cells assessed as reduction in cell viability irradiated with 365 nm of UV for 5 mins and incubated in dark for 96 hrs by MTT assay; assay type: functional, cell-based; details: BGC-823, light or radiation study
HGC-27 [7] = experiment: Inhibition of PI3K/AKT signalling pathway in human HGC-27 cells assessed as downregulation of AKT phosphorylation at […] residue at 100 nM irradiated with 365 nm UV light for 5 mins and incubated for 24 hrs by Western blot; assay type: cell-based
AGS = experiment: Antiproliferative activity against human AGS cells assessed as reduction in cell viability incubated in dark for 96 hrs by MTT assay; assay type: functional, cell-based
HCT-116 [8] = experiment: Inhibition of PI3K/AKT signalling pathway in human HCT-116 cells assessed as downregulation of AKT phosphorylation at Ser473 residue at 100 nM incubated for 24 hrs under dark condition by Western blot; assay type: cell-based
HCT-116 [9] = experiment: Inhibition of PI3K/AKT signalling pathway in human HCT-116 cells assessed as downregulation of […] phosphorylation at 100 nM irradiated with 365 nm UV light for 5 mins and incubated for 24 hrs by Western blot; assay type: cell-based
[10] = Photo stability of compound assessed as release of 2,4-difluoro-N-(2-methoxy-5-(4-methyl-8-(tetrahydro-2H-pyran-4-yloxy)quinazolin-6-yl)pyridin-3-yl)benzenesulfonamide by measuring half life irradiated with 365 nm of UV for 5 min measured by HPLC analysis; assay type: physicochemical
MG-63 = experiment: Antiproliferative activity against human MG-63 cells assessed as reduction in cell viability incubated in dark for 96 hrs by MTT assay; assay type: functional, cell-based; details: MG-63, 96 h
MGC-803 = experiment: Antiproliferative activity against human MGC-803 cells assessed as reduction in cell viability irradiated with 365 nm of UV for 5 mins and incubated in dark for 96 hrs by MTT assay; assay type: functional, cell-based; details: MGC-803, light or radiation study
[11] = molecular target: Phosphatidylinositol 4,5-bisphosphate 3-kinase catalytic subunit gamma isoform (Homo sapiens, UniProt P48736); experiment: Inhibition of PI3K gamma (unknown origin) using PIP2 as substrate incubated in dark at room temperature for 1 hr in presence of ATP by ADP-Glo luminescent assay
Chain of Phosphatidylinositol 4,5-bisphosphate 3-kinase catalytic subunit gamma isoform (P48736 whole entry, canonical isoform): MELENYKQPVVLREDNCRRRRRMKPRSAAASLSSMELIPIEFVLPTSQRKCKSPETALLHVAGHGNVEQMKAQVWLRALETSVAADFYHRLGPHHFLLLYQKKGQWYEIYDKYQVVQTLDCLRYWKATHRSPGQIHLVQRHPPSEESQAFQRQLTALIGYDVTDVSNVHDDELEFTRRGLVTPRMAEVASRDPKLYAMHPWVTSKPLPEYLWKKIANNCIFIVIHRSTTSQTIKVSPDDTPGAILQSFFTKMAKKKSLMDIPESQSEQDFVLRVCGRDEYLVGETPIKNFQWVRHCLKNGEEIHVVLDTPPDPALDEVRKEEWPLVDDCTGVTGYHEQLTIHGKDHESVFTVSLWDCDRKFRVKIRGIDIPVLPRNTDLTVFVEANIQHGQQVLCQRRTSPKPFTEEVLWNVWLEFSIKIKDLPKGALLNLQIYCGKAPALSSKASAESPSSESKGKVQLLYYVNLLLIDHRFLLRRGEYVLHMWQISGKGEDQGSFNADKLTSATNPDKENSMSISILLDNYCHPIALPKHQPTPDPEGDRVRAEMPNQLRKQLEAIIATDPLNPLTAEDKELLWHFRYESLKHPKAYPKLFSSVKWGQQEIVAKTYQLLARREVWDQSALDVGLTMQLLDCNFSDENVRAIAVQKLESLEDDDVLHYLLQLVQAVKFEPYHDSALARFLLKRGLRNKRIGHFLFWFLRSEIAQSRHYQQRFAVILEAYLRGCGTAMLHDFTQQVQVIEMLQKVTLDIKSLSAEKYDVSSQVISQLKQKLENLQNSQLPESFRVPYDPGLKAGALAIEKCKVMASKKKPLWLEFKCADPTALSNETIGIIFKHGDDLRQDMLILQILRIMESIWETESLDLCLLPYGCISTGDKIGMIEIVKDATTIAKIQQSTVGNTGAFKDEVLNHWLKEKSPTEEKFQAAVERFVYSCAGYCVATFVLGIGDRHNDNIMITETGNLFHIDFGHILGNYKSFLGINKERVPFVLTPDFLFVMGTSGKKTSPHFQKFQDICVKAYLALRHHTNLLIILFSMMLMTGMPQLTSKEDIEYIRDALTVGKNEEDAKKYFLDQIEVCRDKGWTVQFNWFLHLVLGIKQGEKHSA

[12] = Apparent permeability across apical to basolateral side in human Caco-2 cells at 10 uM incubated for 2 hrs by LC-MS/MS analysis; assay type: ADME, cell-based
[13] = Apparent permeability across basolateral to apical side in human Caco-2 cells at 10 uM incubated for 2 hrs by LC-MS/MS analysis; assay type: ADME, cell-based
[14] = Stability in dog liver microsomes assessed as half life at 1 uM in presence of NADPH measured upto 120 min by LC-MS/MS analysis; assay type: ADME, Canis lupus familiaris, Microsome
HCT-116 [15] = experiment: Inhibition of PI3K/AKT signalling pathway in human HCT-116 cells assessed as downregulation of AKT phosphorylation at […] residue at 100 nM incubated for 24 hrs under dark condition by Western blot; assay type: cell-based
HGC-27 [16] = experiment: Inhibition of PI3K/AKT signalling pathway in human HGC-27 cells assessed as downregulation of SRP6 phosphorylation at 100 nM irradiated with 365 nm UV light for 5 mins and incubated for 24 hrs by Western blot; assay type: cell-based
HGC-27 [17] = experiment: Inhibition of colony formation in human HGC-27 cells irradiated with 365 nm of UV light for 5 min at 100 nM incubated for 24 hrs by crystal violet staining based assay; assay type: functional, cell-based
[18] = Plasma protein binding in dog at 1 uM by LC-MS/MS analysis; assay type: ADME, cell-free, Canis lupus familiaris; details: read-out: PPB (converted)
[19] = molecular target: T1, Phosphatidylinositol 4,5-bisphosphate 3-kinase catalytic subunit delta isoform (Homo sapiens, UniProt O00329); experiment: Inhibition of PI3K delta (unknown origin) using PIP2 as substrate incubated in dark at room temperature for 1 hr in presence of ATP by ADP-Glo luminescent assay
T1 sequence (O00329 whole entry): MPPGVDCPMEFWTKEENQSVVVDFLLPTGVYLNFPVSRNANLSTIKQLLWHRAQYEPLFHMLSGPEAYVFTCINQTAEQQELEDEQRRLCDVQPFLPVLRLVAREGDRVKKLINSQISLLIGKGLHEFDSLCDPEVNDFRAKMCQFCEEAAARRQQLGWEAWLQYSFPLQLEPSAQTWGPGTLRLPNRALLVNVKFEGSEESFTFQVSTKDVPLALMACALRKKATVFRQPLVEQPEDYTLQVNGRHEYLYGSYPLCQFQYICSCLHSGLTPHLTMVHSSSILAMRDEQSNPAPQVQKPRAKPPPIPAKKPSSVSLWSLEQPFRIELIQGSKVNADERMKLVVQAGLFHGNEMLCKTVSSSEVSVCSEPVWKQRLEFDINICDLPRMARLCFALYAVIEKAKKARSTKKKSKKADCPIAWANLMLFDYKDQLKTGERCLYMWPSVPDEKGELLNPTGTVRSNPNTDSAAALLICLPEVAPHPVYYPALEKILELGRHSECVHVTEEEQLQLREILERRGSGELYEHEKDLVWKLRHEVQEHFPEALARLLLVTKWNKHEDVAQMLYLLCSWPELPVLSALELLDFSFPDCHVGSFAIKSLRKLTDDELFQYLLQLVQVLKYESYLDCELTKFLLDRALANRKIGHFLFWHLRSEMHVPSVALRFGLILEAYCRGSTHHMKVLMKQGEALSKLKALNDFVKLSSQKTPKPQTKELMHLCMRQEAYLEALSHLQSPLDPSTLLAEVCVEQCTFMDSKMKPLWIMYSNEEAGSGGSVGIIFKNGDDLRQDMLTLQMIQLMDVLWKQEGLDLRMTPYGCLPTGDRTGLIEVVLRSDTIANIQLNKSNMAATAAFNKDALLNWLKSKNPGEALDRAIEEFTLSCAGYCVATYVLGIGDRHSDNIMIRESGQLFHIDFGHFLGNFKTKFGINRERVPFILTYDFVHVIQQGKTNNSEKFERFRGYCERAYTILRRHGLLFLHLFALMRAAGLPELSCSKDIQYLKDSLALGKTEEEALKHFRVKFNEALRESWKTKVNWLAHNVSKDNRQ

[20] = molecular target: Phosphatidylinositol 4,5-bisphosphate 3-kinase catalytic subunit beta isoform (Homo sapiens, UniProt P42338); experiment: Inhibition of PI3K beta (unknown origin) using PIP2 as substrate incubated in dark at room temperature for 1 hr in presence of ATP by ADP-Glo luminescent assay
Chain of Phosphatidylinositol 4,5-bisphosphate 3-kinase catalytic subunit beta isoform (P42338 whole entry, canonical isoform): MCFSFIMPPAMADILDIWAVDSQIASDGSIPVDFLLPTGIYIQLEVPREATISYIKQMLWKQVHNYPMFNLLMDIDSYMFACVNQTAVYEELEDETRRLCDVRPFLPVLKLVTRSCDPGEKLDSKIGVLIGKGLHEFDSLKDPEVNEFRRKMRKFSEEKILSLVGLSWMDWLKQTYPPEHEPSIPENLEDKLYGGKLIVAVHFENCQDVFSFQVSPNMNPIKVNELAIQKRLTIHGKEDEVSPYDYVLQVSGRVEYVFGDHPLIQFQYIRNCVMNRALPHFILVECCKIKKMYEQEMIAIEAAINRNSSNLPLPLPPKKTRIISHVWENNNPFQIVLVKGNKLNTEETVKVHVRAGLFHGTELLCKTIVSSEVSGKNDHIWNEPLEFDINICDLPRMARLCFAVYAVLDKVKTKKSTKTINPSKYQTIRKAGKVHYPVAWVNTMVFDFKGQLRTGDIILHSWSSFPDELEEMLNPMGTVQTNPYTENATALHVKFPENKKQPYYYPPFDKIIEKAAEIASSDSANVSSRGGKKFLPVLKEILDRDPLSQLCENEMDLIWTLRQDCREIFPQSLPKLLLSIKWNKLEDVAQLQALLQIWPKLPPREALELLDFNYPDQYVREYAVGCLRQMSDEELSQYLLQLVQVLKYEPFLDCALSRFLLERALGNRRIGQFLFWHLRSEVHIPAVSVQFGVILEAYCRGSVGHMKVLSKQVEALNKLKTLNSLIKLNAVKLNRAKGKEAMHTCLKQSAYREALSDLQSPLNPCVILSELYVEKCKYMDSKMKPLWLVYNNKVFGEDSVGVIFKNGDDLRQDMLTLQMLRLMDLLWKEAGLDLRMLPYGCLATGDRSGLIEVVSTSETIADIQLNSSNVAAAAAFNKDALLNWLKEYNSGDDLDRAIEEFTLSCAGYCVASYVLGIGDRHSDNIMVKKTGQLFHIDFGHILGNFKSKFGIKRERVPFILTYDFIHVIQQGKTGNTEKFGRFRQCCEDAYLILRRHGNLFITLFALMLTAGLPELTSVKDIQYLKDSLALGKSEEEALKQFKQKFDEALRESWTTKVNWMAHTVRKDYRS

HCT-116 [21] = experiment: Inhibition of colony formation in human HCT-116 cells at 100 nM incubated for 24 hrs by crystal violet staining based assay; assay type: functional, cell-based
HGC-27 [22] = experiment: Inhibition of PI3K/AKT signalling pathway in human HGC-27 cells assessed as downregulation of AKT phosphorylation at […] residue at 100 nM incubated for 24 hrs under dark condition by Western blot; assay type: cell-based

Stability [1]: Stable | IC50 [2]: 0.00058 µM | IC50 (BGC-823 [4]): 2.36 µM | IC50 (BGC-823 [6]): 0.103 µM | IC50 (AGS): 0.924 µM | t1/2 [10]: 5 min | IC50 (MGC-803): 0.329 µM | IC50 [11]: 4.47 µM | Papp A→B at 2 h, 10 µM [12]: 4.9 nm/s | Papp B→A at 2 h, 10 µM [13]: 19.5 nm/s | half-life at 1 µM [14]: 4.62 min | fraction unbound at 1 µM [18]: 0.005 | IC50 [19]: 3.01 µM | IC50 [20]: 0.838 µM
SMILES: COc1cc(CN(c2cc(-c3cc(OC4CCOCC4)c4ncnc(C)c4c3)cnc2OC)S(=O)(=O)c2ccc(F)cc2F)c([N+](=O)[O-])cc1OC
Activity (Homo sapiens): Dose-Dependent Effect | inhibition (HCT-116 [3]): Active | inhibition (HGC-27 [5]): inactive | inhibition (HGC-27 [7]): Active | inhibition (HCT-116 [8]): inactive | inhibition (HCT-116 [9]): Active | IC50 (MG-63): 1.84 µM | inhibition (HCT-116 [15]): inactive | inhibition (HGC-27 [16]): Active | inhibition (HGC-27 [17]): Active | inhibition (HCT-116 [21]): inactive | inhibition (HGC-27 [22]): inactive
